Laboratory results: paper PMC8672713 (Chemical Science, 2021)

These compounds were tested against SARS-CoV-2 Mpro (Severe acute respiratory syndrome coronavirus 2, UniProt P0DTD1).
Assay type: biochemical

**Q.** How did the IC50 turn out when Cc1cncc(C(=O)NC[C@H]2c3ccccc3CCN2C(=O)c2cccn3nnnc23)c1 [Z4921675438] was run?
**A.** 10.8 µM

**Q.** How did the IC50 turn out when O=C(NC[C@H](NC(=O)c1cncc2sccc12)c1ccc2ccccc2c1)c1cocn1 [Z4921678803] was run?
**A.** 12.1 µM

**Q.** For O=C(NC[C@@H]1CC2(CCC2)CN1C(=O)c1ccc(F)c(O)c1)c1cncc2ccccc12 [Z4927220858], which IC50 is on record?
**A.** 11.2 µM
